Assay results: PMC13250620

Tests used:
[1] = Pd(0) Larock indole macrocyclisation (aryl C-Br + TES-alkyne); Pd(OAc)2 0.5 eq, tBu3P·HBF4 1.0 eq, DIPEA 10 eq for 54; 32 by previously reported procedure; details: the molecule shown is the open-chain precursor, 110.0 °C
[2] = Pd(0) Larock indole macrocyclisation (aryl C-Br + TES-alkyne, ArNHAc; forms Trp C3a-C3 and N1-C2 bonds); Pd(OAc)2 0.5 eq, tBu3P·HBF4 1.0 eq, DIPEA 10 eq; details: the molecule shown is the open-chain precursor; 16-membered ring; toluene; 20.0 mM; 110.0 °C; 12.0 h; 5 steps

Row | Compound | ring closure, yield over several steps [2] | also measured
1 | CC[Si](C#CC[C@H](NC(=O)OC(C)(C)C)C(=O)N[C@@H](C)C(=O)N[C@@H](CC(C)C)C(=O)N[C@@H](Cc1ccc(OC)c(-c2ccc(Br)c(N)c2)c1)C(=O)OC)(CC)CC [Boc-Pra(TES)-Ala-Leu-Tyr(OMe, 3-(3-NH2-4-Br-phenyl))-OMe] | – | ring closure, isolated yield ([1]; 20-membered ring;, 12.0 h): 79%
2 | CC[Si](C#CC[C@H](NC(=O)[C@@H]1CCCN1C(=O)[C@H](Cc1ccc(C)c(-c2ccc(NC(C)=O)c(Br)c2)c1)N1C(=O)c2ccccc2C1=O)C(=O)OC)(CC)CC [Phth-Phe(4-Me, 3-(4-NHAc-3-Br-phenyl))-Pro-Pra(TES)-OMe] | 39% | –
3 | CC[Si](C#CC[C@H](NC(=O)[C@@H]1CCCN1C(=O)[C@H](Cc1ccc(F)c(-c2ccc(NC(C)=O)c(Br)c2)c1)NC(=O)OC(C)(C)C)C(=O)OC)(CC)CC [Boc-Phe(4-F, 3-(4-NHAc-3-Br-phenyl))-Pro-Pra(TES)-OMe] | 31% | –
4 | CC[Si](C#CC[C@H](NC(=O)[C@@H]1CCCN1C(=O)[C@H](Cc1cccc(-c2ccc(NC(C)=O)c(Br)c2)c1)N1C(=O)c2ccccc2C1=O)C(=O)OC)(CC)CC [Phth-Phe(3-(4-NHAc-3-Br-phenyl))-Pro-Pra(TES)-OMe] | 30% | –
5 | CC[Si](C#CC[C@H](NC(=O)[C@@H]1CCCN1C(=O)[C@H](Cc1ccc(OC)c(-c2ccc(NC(C)=O)c(Br)c2)c1)NC(=O)OC(C)(C)C)C(=O)OC)(CC)CC [Boc-Tyr(OMe, 3-(4-NHAc-3-Br-phenyl))-Pro-Pra(TES)-OMe] | – | ring closure, isolated yield ([1]; 16-membered ring;): 45%
6 | CC[Si](C#CC[C@H](NC(=O)[C@@H]1CCCN1C(=O)[C@H](Cc1cc(F)cc(-c2ccc(NC(C)=O)c(Br)c2)c1)N1C(=O)c2ccccc2C1=O)C(=O)OC)(CC)CC [Phth-Phe(5-F, 3-(4-NHAc-3-Br-phenyl))-Pro-Pra(TES)-OMe] | 23% | –
